Test results from publication PMC11204923, “Marine Cytotoxin Santacruzamate A Derivatives as Potent HDAC1-3 Inhibitors and Their Synergistic Anti-Leukemia Effects with Venetoclax” (Marine Drugs, 2024).

What was measured:
Kasumi-1 cells = assay: Cell viability assay (resazurin), Kasumi-1; format: cell-based; conditions: Homo sapiens, Kasumi 1, 72 h; read-out: IC50 anti-proliferative activity Kasumi-1
Description: (§1) The AML cell lines MV4-11, THP-1, KASUMI-1 and HL-60 were purchased from Procell Life Science & Technology Co., Ltd. (Wuhan, China). THP-1 and KASUMI-1 were cultured in RPMI-1640 complete medium containing 10% fetal bovine serum and 1% penicillin and streptomycin. MV4-11 was cultured in IMDM complete medium containing 10% fetal bovine serum and 1% penicillin and streptomycin. HL-60 was cultured in IMDM complete medium containing 20% fetal bovine serum and 1% penicillin and streptomycin. All cell lines were cultured in an incubator with humidity set at 95%, temperature at 37 °C and 5% CO2.
(§2) MV4-11, THP-1, KASUMI-1 and HL-60 cells were plated in 96-well transparent plates (10,000 to 15,000 cells/100 μL) and after incubation overnight, cells were treated with gradient-diluted inhibitors with several concentrations. After the cells were incubated with inhibitors for 72 h, 1 mg/mL of Resazurin (Sigma-Aldrich, Saint Louis, MO, USA) was added (working concentration was 0.1 mg/mL). After incubation at 37 °C for about 3 h, the fluorescence intensity of […] was measured at 560 nm/590 nm (excitation/emission) with a Spectra Max i3 Microplate Reader, and the cell viability was determined. The IC50 curve was drawn using GraphPad Prism 9.5 software.

THP-1 cells = assay: Cell viability assay (resazurin), THP-1; format: cell-based; conditions: Homo sapiens, THP-1, 72 h; read-out: IC50 anti-proliferative activity THP-1
Description: as §1, §2

HDAC2 = target: T1, HDAC2 (Homo sapiens, UniProt Q92769); assay: In vitro HDAC inhibition fluorescence assay, HDAC2; format: biochemical
T1 construct: purchased BPS Bioscience
T1 sequence (Q92769 whole entry): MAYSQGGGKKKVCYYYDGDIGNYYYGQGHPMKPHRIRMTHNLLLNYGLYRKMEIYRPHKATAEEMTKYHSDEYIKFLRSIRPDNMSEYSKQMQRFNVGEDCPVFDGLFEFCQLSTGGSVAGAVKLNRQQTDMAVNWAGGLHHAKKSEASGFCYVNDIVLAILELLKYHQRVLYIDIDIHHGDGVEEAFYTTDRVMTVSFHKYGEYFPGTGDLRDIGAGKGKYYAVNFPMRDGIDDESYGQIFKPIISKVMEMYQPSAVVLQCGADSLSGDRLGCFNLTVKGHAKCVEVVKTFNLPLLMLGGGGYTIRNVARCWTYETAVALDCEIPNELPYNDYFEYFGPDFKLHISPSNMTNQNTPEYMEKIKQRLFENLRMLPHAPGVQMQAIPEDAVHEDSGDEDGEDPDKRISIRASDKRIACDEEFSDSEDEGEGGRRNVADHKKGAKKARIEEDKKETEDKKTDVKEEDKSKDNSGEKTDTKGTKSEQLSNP
Description: All of the HDAC enzymes were purchased from BPS Bioscience. In vitro HDAC inhibition assays were conducted as previously described. In brief, 20 μL of recombinant HDAC enzyme solution (HDAC1-9, 11) was mixed with various concentrations of the tested compound (20 μL). […] After incubation at 37 °C for 2 h, the catalysis was stopped by the addition of 10 μL of developer containing 30 mg/mL trypsin and 6 μM trichostatin A (TSA). Then, 30 min later, the fluorescence intensity was measured using a microplate reader at excitation and emission wavelengths of 360 and 460 nm, respectively. The inhibition ratios were calculated from the fluorescence intensity readings of tested wells relative to those of control wells, and the IC50 curves and values were determined by GraphPad Prism 6.0, using the “log(inhibitor) vs. normalized response-variable slope” function.

[1] = In vitro stability in artificial intestinal juice; format: in vitro ADME; conditions: 37 °C, within 24 h, degradation beginning after about 8 h
Description: Equal samples were collected, and 600 μL acetonitrile was added to quench enzyme reactions. The reaction mixture was swirled for 30 s and then centrifuged at 15,000 rpm at 4 °C for 15 min. The supernatant of each sample was analyzed directly by HPLC (1260 Infinity II, Agilent Technologies, Waldbronn, Germany).

MV4-11 cells [2] = assay: Microdilution checkerboard assay, 25c combined with Venetoclax; format: cell-based; conditions: Homo sapiens, 72 h, read-out: Inhibition Rate (%)
Description: The inhibition effect of 25c combined with Venetoclax on the proliferation of MV4-11 cells was determined by microdilution checkerboard assay. CompuSyn software was used to calculate the combined action index of the two compounds, and the cell inhibition rates of the two compounds acting alone and the combined action were input to calculate the combination index (CI) to evaluate the synergistic effect of the drugs. A CI value less than 1 indicates a synergistic effect, a CI value equal to 1 indicates an additive effect and a CI value greater than 1 indicates an antagonistic effect.

MV4-11 cells [3] = assay: Western blot analysis; format: cell-based; conditions: 24 h
Description: MV4-11 cells were inoculated into 12-well plates at a density of 800,000 cells/mL. After incubation overnight, each well was treated with different concentrations of 25c and Venetoclax alone or in combination. After treatment for 24 h, the cells were collected and washed with pre-cooled PBS. A protease inhibitor (cocktail) and RIPA buffer were added for cell lysis. The decomposed solution was centrifuged at 12,000 rpm for 15 min at 4 °C, and the extracted protein was located in the supernatant. The proteins in each sample were denatured by heating at 100 °C in loading buffer (5×) for 10 min. The same amount of proteins in each sample was separated by SDS-PAGE and then electrotransferred to a PVDF membrane (Merck Millipore, Billerica, MA, USA) and enclosed in 5% skim milk powder for 1 h. The primary antibody diluted with an immune response booster solution was incubated in a shaking bed at 4 °C overnight, and the horseradish (HRP)-conjugated second antibody diluted with 5% skim milk powder was incubated at room temperature for 1 h on the second day. After the PVDF membrane was washed with TBST, the target protein bands could be detected with chemiluminescent reagents (Millipore, Billerica, MA, USA) and visualized in the Tanon 5200 + fluorescence imager.
The primary antibodies Caspase 3 (including Cleaved Caspase-3) (sc-56053), Mcl-1 (94296S), Bcl-xL (ab98143), γ-H2AX (9718S), AcHH3 (Lys27) (8173S), AcHH4 (sc-377520), HH3 (ab1791), Ac-tubulin (sc-23950), HDAC6 (sc-28386), α-tubulin (sc-23948), GAPDH (sc-59540) and β-actin (8H10D10) were purchased from Abcam, Cell Signaling Technology and Santa Cruz Biotechnology.

HDAC9 = target: T2, HDAC9 (Homo sapiens, UniProt Q9UKV0); assay: In vitro HDAC inhibition fluorescence assay, HDAC9; format: biochemical
T2 construct: purchased BPS Bioscience
T2 sequence (Q9UKV0 whole entry): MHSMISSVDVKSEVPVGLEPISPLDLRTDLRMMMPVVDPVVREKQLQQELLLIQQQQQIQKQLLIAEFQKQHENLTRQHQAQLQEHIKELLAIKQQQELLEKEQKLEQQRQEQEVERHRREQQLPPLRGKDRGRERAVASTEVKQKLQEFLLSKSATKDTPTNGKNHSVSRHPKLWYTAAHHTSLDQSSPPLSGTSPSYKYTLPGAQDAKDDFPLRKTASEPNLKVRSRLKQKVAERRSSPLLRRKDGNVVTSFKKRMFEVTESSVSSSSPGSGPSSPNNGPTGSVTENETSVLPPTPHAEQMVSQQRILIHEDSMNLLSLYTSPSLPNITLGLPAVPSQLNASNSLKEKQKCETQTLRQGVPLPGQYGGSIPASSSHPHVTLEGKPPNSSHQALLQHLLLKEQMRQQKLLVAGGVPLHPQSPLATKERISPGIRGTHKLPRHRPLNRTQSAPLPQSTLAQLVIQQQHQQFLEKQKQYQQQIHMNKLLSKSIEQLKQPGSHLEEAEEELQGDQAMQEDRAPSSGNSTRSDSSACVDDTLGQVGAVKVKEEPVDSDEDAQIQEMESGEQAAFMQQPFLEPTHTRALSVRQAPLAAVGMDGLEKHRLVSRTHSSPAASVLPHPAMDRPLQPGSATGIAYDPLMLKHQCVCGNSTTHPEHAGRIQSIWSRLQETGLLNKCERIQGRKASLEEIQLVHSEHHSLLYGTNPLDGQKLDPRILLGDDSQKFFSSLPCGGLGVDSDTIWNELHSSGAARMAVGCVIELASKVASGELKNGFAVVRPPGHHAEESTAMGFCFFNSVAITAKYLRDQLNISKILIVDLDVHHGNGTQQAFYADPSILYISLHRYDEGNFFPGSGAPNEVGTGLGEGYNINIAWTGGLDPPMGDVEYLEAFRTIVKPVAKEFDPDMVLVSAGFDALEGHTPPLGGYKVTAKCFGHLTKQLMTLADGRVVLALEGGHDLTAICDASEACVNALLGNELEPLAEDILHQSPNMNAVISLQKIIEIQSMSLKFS
Description: All of the HDAC enzymes were purchased from BPS Bioscience. In vitro HDAC inhibition assays were conducted as previously described. In brief, 20 μL of recombinant HDAC enzyme solution (HDAC1-9, 11) was mixed with various concentrations of the tested compound (20 μL). The mixture was incubated at 37 °C for 1 h, and then, 10 μL of fluorogenic substrate (Boc-Lys (acetyl)-AMC for HDAC1, 2, 3 and 6; Boc-Lys (trifluoroacetyl)AMC for HDAC4, 5, 7, 8, 9 and 11) was added to achieve a final concentration of 50 μM. After incubation at 37 °C for 2 h, the catalysis was stopped by the addition of 10 μL of developer containing 30 mg/mL trypsin and 6 μM trichostatin A (TSA). Then, 30 min later, the fluorescence intensity was measured using a microplate reader at excitation and emission wavelengths of 360 and 460 nm, respectively. The inhibition ratios were calculated from the fluorescence intensity readings of tested wells relative to those of control wells, and the IC50 curves and values were determined by GraphPad Prism 6.0, using the “log(inhibitor) vs. normalized response-variable slope” function.

Work on `CCCNNC(=O)C=Cc1ccc(CNCCc2ccccc2)cc1` [Compound 25c, 3-(4-((Phenethylamino)methyl)phenyl)-N′-propylacrylohydrazide] yielded an IC50 (Kasumi-1 cells) of 0.338 ± 0.125 µM, an IC50 (THP-1 cells) of 0.392 ± 0.0605 µM and an IC50 (HDAC2) of 0.135 ± 0.0133 µM. The “degradation in artificial intestinal juice” value [1] was 12.52%, the inhibition at 0.13 µM (MV4-11 cells [2]; 25c 0.13 μM alone) was 15.8% and the inhibition at 0.19 µM (MV4-11 cells [2]; 25c 0.19 μM alone) was 33.9%. For the same molecule, the inhibition at 0.28 µM (MV4-11 cells [2]; 25c 0.28 μM alone) was 69.8%, the “level of cleaved-caspase3” value (MV4-11 cells [3]; 25c monotherapy, 30 nM and 90 nM) was “No substantial alterations” and the level of acetyl-tubulin (MV4-11 cells [3]) was “increased”. For the same molecule, the “level of acetylated histone H3 (AcHH3)” value (MV4-11 cells [3]) was “significantly elevated”, the “level of acetylated histone H4 (AcHH4)” value (MV4-11 cells [3]) was “significantly elevated” and the IC50 (HDAC9) was greater than 10 µM.
